In patent US20200138031A1, “MIXTURES OF SABADILLA ALKALOIDS AND N-OCTYL BICYCLOHEPTENE DICARBOXIMIDE AND USES THEREOF” (priority 2016, published 2020):

Legend:
Assay type in all cases: in vivo
[1] = tested on: house fly (Musca domestica); experiment: direct spray bioassay against house fly; conditions: for % Mortality: Hour 4; for mortality at 0.025 % strength / mortality at 0.1 % strength / mortality at 0.25 % strength / mortality at 1 % strength: Musca domestica
Protocol: (§1) To determine if the mixtures provided unexpected results, the observed combined efficacy (“OCE”) was divided by the expected combined efficacy (“ECE”) to give an OCE/ECE ratio wherein the expected ECE is calculated by the Abbott method: […]
(§2) wherein ECE is the expected combined efficacy and in which A and B are the efficacy provided by the single active ingredients. If the ratio between the OCE of the mixture and the ECE of the mixture is greater than 1, then greater than expected interactions are present in the mixture. (Gisi, The American Phytopathological Society, 86:11, 1273-1279, 1996).
(§3) A direct spray bioassay for a mixture of sabadilla N-octyl and MGK264 against house fly (Musca domestica) was conducted on Mar. 6-13, 2019. A water-based formulation containing Sabadilla alone, MGK264 alone, or these combinations were prepared using test products and distilled water. Ten adults (females) of the house fly were put into 650 mL clean cup (100 mm diameter×70 mm height) laid a filter paper (106 mm diameter) at the bottom, and the cup was covered with 1 mm mesh nylon net. The cup was set on the bottom of CSMA chamber (460 mm×460 mm×700 mm height), and 0.5 mL of water (control) or water-based formulation of test products was sprayed from the distance of 30 cm toward the cup at the air pressure of 0.039 MPa (0.4 kg/cm2). […] The test was repeated 4 times and calculated mortality (%) at each observation point.

[2] = tested on: German cockroach (Blattella germanica); experiment: direct spray bioassay against German cockroach; conditions: for % Mortality: Hour 4; for mortality at 0.05 % strength / mortality at 0.5 % strength / mortality at 5 % strength: Blattella germanica
Protocol: as §1, §2
A direct spray bioassay for a mixture of sabadilla and MGK264 against German cockroach (Blattella germanica) was conducted on Feb. 13-20, 2019. A water-based formulation containing Sabadilla alone, MGK264 alone, or these combinations were prepared using test products and distilled water. Ten adults (1:1 sex ratio) of the cockroach were put into 200 mL clean cup (80 mm diameter×45 mm height) laid a filter paper (82 mm diameter) at the bottom. The cup was set on the bottom of CSMA chamber (460 mm×460 mm×700 mm height), and 1.5 mL of water (control) or water-based formulation of test products was sprayed from the distance of 60 cm toward the cup at the air pressure of 0.041 MPa (0.42 kg/cm2). […] The test was repeated 4 times and calculated mortality (%) at each observation point.

[3] = tested on: Yellow fever mosquito (Aedes aegypti); experiment: whole plant or invertebrate; conditions: for % Mortality: Hour 4; for mortality at 0.05 % strength / mortality at 0.5 % strength / mortality at 1 % strength / mortality: Aedes aegypti; for mortality at 1 % strength: 1.0 % w/w
Protocol: as §3, with “sabadilla and” for “sabadilla”, “bycloheptene dicarboximide (MGK264)” for “and MGK264”, “Yellow fever mosquito (Aedes aegypti)” for “house fly (Musca domestica)”, “Sep. 20-27,” for “Mar. 6-13,”, “mosquito” for “house fly”
as §1, §2

Compound: CCCCC(CC)CN1C(=O)C2C3C=CC(C3)C2C1=O (centres unmarked) [MGK264, N-octyl bicycloheptene dicarboximide]
- % Mortality ([1]; 0.025 % w/w): 0.0%
- % Mortality ([1]; 0.1 % w/w): 0.0%
- % Mortality ([1]; 0.25 % w/w): 0.0%
- % Mortality ([1]; 1.0 % w/w): 0.0%
- mortality at 0.025 % strength ([1]; 24 h, 0.025 % w/w, Day 1): 0%
- mortality at 0.1 % strength ([1]; 24 h, 0.1 % w/w, Day 1): 0%
- mortality at 0.25 % strength ([1]; 24 h, 0.25 % w/w, Day 1): 0%
- mortality at 1 % strength ([1]; 24 h, 1.0 % w/w, Day 1): 2.5%
- mortality at 0.025 % strength ([1]; 48 h, 0.025 % w/w, Day 2): 7.3%
- mortality at 0.1 % strength ([1]; 48 h, 0.1 % w/w, Day 2): 10%
- mortality at 0.25 % strength ([1]; 48 h, 0.25 % w/w, Day 2): 10%
- mortality at 1 % strength ([1]; 48 h, 1.0 % w/w, Day 2): 12.5%
- mortality at 0.025 % strength ([1]; 120 h, 0.025 % w/w, Day 5): 34.1%
- mortality at 0.1 % strength ([1]; 120 h, 0.1 % w/w, Day 5): 37.5%
- mortality at 0.25 % strength ([1]; 120 h, 0.25 % w/w, Day 5): 42.5%
- mortality at 1 % strength ([1]; 120 h, 1.0 % w/w, Day 5): 72.5%
- mortality at 0.025 % strength ([1]; 144 h, 0.025 % w/w, Day 6): 53.7%
- mortality at 0.1 % strength ([1]; 144 h, 0.1 % w/w, Day 6): 37.5%
- mortality at 0.25 % strength ([1]; 144 h, 0.25 % w/w, Day 6): 50%
- mortality at 1 % strength ([1]; 144 h, 1.0 % w/w, Day 6): 80%
- mortality at 0.025 % strength ([1]; 168 h, 0.025 % w/w, Day 7): 68.3%
- mortality at 0.1 % strength ([1]; 168 h, 0.1 % w/w, Day 7): 55%
- mortality at 0.25 % strength ([1]; 168 h, 0.25 % w/w, Day 7): 60%
- mortality at 1 % strength ([1]; 168 h, 1.0 % w/w, Day 7): 87.5%
- mortality at 0.025 % strength ([1]; 0.025 % w/w, Hour 1): 0%
- mortality at 0.1 % strength ([1]; 0.1 % w/w, Hour 1): 0%
- mortality at 0.25 % strength ([1]; 0.25 % w/w, Hour 1): 0%
- mortality at 1 % strength ([1]; 1.0 % w/w, Hour 1): 0%
- % Mortality ([2]; 0.05 % w/w): 0.0%
- % Mortality ([2]; 0.5 % w/w): 0.0%
- % Mortality ([2]; 5.0 % w/w): 0.0%
- mortality at 0.05 % strength ([2]; 24 h, 0.05 % w/w, Day 1): 0%
- mortality at 0.5 % strength ([2]; 24 h, 0.5 % w/w, Day 1): 0%
- mortality at 5 % strength ([2]; 24 h, 5.0 % w/w, Day 1): 0%
- mortality at 0.05 % strength ([2]; 48 h, 0.05 % w/w, Day 2): 0%
- mortality at 0.5 % strength ([2]; 48 h, 0.5 % w/w, Day 2): 0%
- mortality at 5 % strength ([2]; 48 h, 5.0 % w/w, Day 2): 0%
- mortality at 0.05 % strength ([2]; 120 h, 0.05 % w/w, Day 5): 2.6%
- mortality at 0.5 % strength ([2]; 120 h, 0.5 % w/w, Day 5): 0%
- mortality at 5 % strength ([2]; 120 h, 5.0 % w/w, Day 5): 0%
- mortality at 0.05 % strength ([2]; 144 h, 0.05 % w/w, Day 6): 2.6%
- mortality at 0.5 % strength ([2]; 144 h, 0.5 % w/w, Day 6): 0%
- mortality at 5 % strength ([2]; 144 h, 5.0 % w/w, Day 6): 0%
- mortality at 0.05 % strength ([2]; 168 h, 0.05 % w/w, Day 7): 2.6%
- mortality at 0.5 % strength ([2]; 168 h, 0.5 % w/w, Day 7): 0%
- mortality at 5 % strength ([2]; 168 h, 5.0 % w/w, Day 7): 0%
- mortality at 0.05 % strength ([2]; 0.05 % w/w, Hour 1): 0%
- mortality at 0.5 % strength ([2]; 0.5 % w/w, Hour 1): 0%
- mortality at 5 % strength ([2]; 5.0 % w/w, Hour 1): 0%
- % Mortality ([3]; 0.05 % w/w): 0.0%
- % Mortality ([3]; 0.1 % w/w): 0.0%
- % Mortality ([3]; 0.5 % w/w): 0.0%
- mortality at 0.05 % strength ([3]; 24 h, 0.05 % w/w, Day 1): 0%
- mortality at 0.5 % strength ([3]; 24 h, 0.5 % w/w, Day 1): 0%
- mortality at 1 % strength ([3]; 24 h, Day 1): 10%
- mortality ([3]; 24 h, Day 1): 0%
- mortality at 0.5 % strength ([3]; 48 h, 0.5 % w/w, Day 2): 0%
- mortality at 1 % strength ([3]; 48 h, Day 2): 12.5%
- mortality at 0.05 % strength ([3]; 120 h, 0.05 % w/w, Day 5): 0%
- mortality at 0.5 % strength ([3]; 120 h, 0.5 % w/w, Day 5): 0%
- mortality at 1 % strength ([3]; 120 h, Day 5): 12.5%
- mortality at 0.5 % strength ([3]; 144 h, 0.5 % w/w, Day 6): 0%
- mortality at 1 % strength ([3]; 144 h, Day 6): 12.5%
- mortality at 0.05 % strength ([3]; 168 h, 0.05 % w/w, Day 7): 0%
- mortality at 0.5 % strength ([3]; 168 h, 0.5 % w/w, Day 7): 0%
- mortality at 1 % strength ([3]; 168 h, Day 7): 12.5%
- mortality ([3]; 168 h, Day 7): 2.5%
- mortality at 0.05 % strength ([3]; 0.05 % w/w, Hour 1): 0%
- mortality at 0.5 % strength ([3]; 0.5 % w/w, Hour 1): 0%
- mortality at 1 % strength ([3]; Hour 1): 7.5%
- mortality ([3]; Hour 1): 0%
